Results on eleven compounds are retold here after ChEMBL document CHEMBL1121436, “2,4-Diamino-5-benzylpyrimidines as antibacterial agents. 4. 6-Substituted trimethoprim derivatives from phenolic Mannich intermediates. Application to the synthesis of trimethoprim and 3,5-dialkylbenzyl analogues” (J Med Chem, 1980).

The target in test [1] is T1, Bifunctional dihydrofolate reductase-thymidylate synthase (Plasmodium berghei str. ANKA, UniProt Q27713). The experiment in a line: Compound was tested for its inhibition against dihydrofolate reductase enzyme of Plasmodium berghei. The conditions noted are these: read-out: I50.
The next test has as its target T2, Dihydrofolate reductase (Rattus norvegicus, UniProt Q920D2).
T2 sequence (Q920D2 whole entry): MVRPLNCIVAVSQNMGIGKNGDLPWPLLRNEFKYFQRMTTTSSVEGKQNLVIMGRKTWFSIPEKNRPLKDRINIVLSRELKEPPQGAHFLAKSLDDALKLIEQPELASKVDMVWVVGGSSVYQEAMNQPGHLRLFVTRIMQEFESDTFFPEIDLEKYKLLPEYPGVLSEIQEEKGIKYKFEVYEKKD
Description: Inhibition against dihydrofolate reductase enzyme of rat liver. Particulars: read-out: I50.

The next test has as its system Escherichia coli. Description: Tested for antibacterial activity against Escherichia coli CN314. It counts as functional.
A further test relates to Proteus vulgaris. Description: Tested for antibacterial activity against Proteus vulgaris CN329. It is filed as functional.
In another test the test system is Shigella dysenteriae. The experiment in a line: Tested for antibacterial activity against Shigella dysentariae CN1513. It counts as functional.
In test [2] the test system is Staphylococcus aureus. The experiment in a line: Tested for antibacterial activity against Staphylococcus aureus CN491. It counts as functional.
In the next test the test system is Salmonella. The experiment in a line: Tested for antibacterial activity against Salmonella typhi CN512. It counts as functional, salmonella typhosa.
The test system of the next test is Streptococcus pyogenes. Description: Tested for antibacterial activity against Streptococcus pyogenes CN10. It counts as functional.
For test [3], the system named is Staphylococcus aureus. The experiment in a line: Tested for antibacterial activity against Staphylococcus aureus CN491.
The target in test [4] is T1, Bifunctional dihydrofolate reductase-thymidylate synthase. The experiment in a line: Tested for the inhibition of Plasmodium berghei dihydrofolate reductase enzyme. The conditions noted are these: read-out: I50.

≈ marks a conversion by molar mass, not a printed value. Where only a bound is given, the exact number is not on record here.

T1 sequence (Q27713 whole entry): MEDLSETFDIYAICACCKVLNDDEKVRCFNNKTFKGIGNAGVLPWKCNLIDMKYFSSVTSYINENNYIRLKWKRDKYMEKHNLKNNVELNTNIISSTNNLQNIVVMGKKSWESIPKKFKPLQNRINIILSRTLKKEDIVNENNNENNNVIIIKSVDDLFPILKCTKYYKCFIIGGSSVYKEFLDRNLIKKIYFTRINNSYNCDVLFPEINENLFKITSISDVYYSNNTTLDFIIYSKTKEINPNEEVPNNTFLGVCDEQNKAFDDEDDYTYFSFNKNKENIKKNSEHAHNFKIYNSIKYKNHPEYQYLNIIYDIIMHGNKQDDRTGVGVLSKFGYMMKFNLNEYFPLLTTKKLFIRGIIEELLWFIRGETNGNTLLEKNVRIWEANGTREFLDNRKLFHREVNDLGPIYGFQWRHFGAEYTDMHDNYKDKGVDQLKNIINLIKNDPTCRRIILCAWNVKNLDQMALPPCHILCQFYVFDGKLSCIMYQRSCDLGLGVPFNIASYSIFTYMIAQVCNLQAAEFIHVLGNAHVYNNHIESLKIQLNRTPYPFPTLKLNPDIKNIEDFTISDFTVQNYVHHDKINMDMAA

Regarding `CCCc1nc(N)nc(N)c1Cc1cc(OC)c(O)c(OC)c1`, the IC50 in test [1] turned out to be 1.5 µM.
Consider `COc1cc(Cc2c(N)nc(N)nc2OC)cc(OC)c1OC`, for which the IC50 on Dihydrofolate reductase was > 100 µM. In addition, the minimal inhibitory concentration (MIC) in the test with Escherichia coli is > 500 µg/mL; against Proteus vulgaris, > 500 µg/mL; with Shigella dysenteriae, > 500 µg/mL; with Staphylococcus aureus [2], 125 µg/mL (≈ 390 µM); against Salmonella, > 500 µg/mL; against Streptococcus pyogenes, 8 µg/mL (≈ 25 µM).
As to `COc1cc(Cc2c(N)nc(N)nc2-c2ccccc2)cc(OC)c1OC`, at Dihydrofolate reductase, the IC50 is > 400 µM. Further, the minimum inhibitory concentration (MIC) was 250 µg/mL (≈ 682 µM) in the test with Escherichia coli; > 500 µg/mL against Proteus vulgaris; 125 µg/mL (≈ 341 µM) with Shigella dysenteriae; 250 µg/mL (≈ 682 µM) in the test on Salmonella; 16 µg/mL (≈ 43.7 µM) in the test with Streptococcus pyogenes; 62 µg/mL (≈ 169 µM) against Staphylococcus aureus [3].
`CCCc1nc(N)nc(N)c1Cc1cc(OC)c(OC)c(OC)c1`: on Dihydrofolate reductase, the IC50 worked out at 1500 µM.
On the same count and under the same terms, under `COc1cc(Cc2c(N)nc(N)nc2-c2ccccc2)cc(OC)c1O` stands > 45 µM.
Take `COc1c(C(C)(C)C)cc(Cc2c(N)nc(N)nc2SC)cc1C(C)(C)C`: the MIC in the test with Escherichia coli, with Proteus vulgaris, in the test with Shigella dysenteriae, in the test on Salmonella, against Streptococcus pyogenes and against Staphylococcus aureus [3] was > 500 µg/mL in each case.
In the case of `COc1cc(Cc2c(N)nc(N)nc2Oc2ccccc2)cc(OC)c1OC`, the MIC with Escherichia coli, in the test on Proteus vulgaris, with Shigella dysenteriae, in the test with Salmonella, with Streptococcus pyogenes and with Staphylococcus aureus [3] was > 500 µg/mL in each case.
Regarding `COc1cc(Cc2c(N)nc(N)nc2N)cc(OC)c1OC`, the IC50 on Dihydrofolate reductase was > 900 µM.
Take `COc1cc(Cc2c(N)nc(N)nc2SC)cc(OC)c1OC`: the IC50 in [4] was found to be 20 µM.
Turning to `COc1cc(Cc2c(C)nc(N)nc2N)cc(OC)c1OC`, the IC50 in test [1] is 0.34 µM; at Dihydrofolate reductase, > 400 µM.
In the case of `COc1cc(Cc2c(C)nc(N)nc2N)cc(OC)c1O`, the IC50 in test [1] amounted to 0.48 µM.
